The text below walks through data of patent US20250186597A1, “TARGETED IMMUNE ACTIVATION WITH IL-18 IMMUNOCYTOKINES” (BRIGHT PEAK THERAPEUTICS AG, priority 2023, published 2025).

pEC50, pIC50: −log10 of the molar value.

In one test the test system is NK92 cells. Put plainly: Cellular IL-18 Binding Protein resistance assay in NK92 cells (Example 13). Conditions: IL-18BP-mediated inhibition of IFNγ secretion, IL-18 analyte 1 nM. The format is cell-based, human. The method, then: The NK cell line NK-92 derived from a patient with lymphoma (ATCC, Cat #CR^L-2407) was cultured in αMEM medium supplemented with 20% FCS-Glutamax, 25 μM B-mercaptoethanol, and 100 IU/ml of recombinant Human Interleukin-2 (IL-2). On the day of experiment, cells were harvested and washed with αMEM medium without IL-2. After counting, cells were seeded at 100 000 cells/well in a 384 well titer plate and incubated at 37° C./5% CO2. Sixteen 2-fold serial dilutions of Fc fused human IL-18 binding protein isoform a (IL-18BPa; R&D systems, Cat #119-BP) were prepared in αMEM medium—1 ng/ml IL-12 containing 2 nM of each IL-18 variants and were added to the NK-92 cells. Final IL-18 analytes concentration was 1 nM and final IL-18BPa concentrations ranged from to 566 nM down to 17 pM.
After 16-20 h incubation at 37° C./5% CO2, 5 μl of supernatant were carefully transferred to a 384 microwells OPTIplate (Perkin Elmer; Cat #6007270) and Interferon-gamma (IFNγ) levels measured using the Human IFNγ AlphaLISA Assay Kit (Perkin Elmer, Cat #AL217C). […] AlphaLisa signal was then measured on an Enspire plate reader (Perkin Elmer) using 680 and 615 nm as excitation and emission wavelengths respectively. Half maximal inhibitory concentration (IC50) was calculated based on a variable slope, four parameter analysis using GraphPad PRISM software.

The subject of test [1] is PD-1positive transduced NK-92 cells. Briefly: IFN gamma secretion assay in PD-1 positive transduced NK-92 cells (Example 17). Format: cell-based, human. The method, then:
To show selectivity of the anti-PD1-IL18 immunocytokine (IC) for PD-1 positive cells, the NK-92 cell line was used to generate a PD-1 expressing cell line and furthermore, to measure IFN[…] release upon incubation with IL-18 variants and ICs.
On the day of experiment, parental PD-1negative and PD-1positive transduced cells were harvested and washed with PBS 1× and resuspended in medium (w/o IL-2) containing 1 ng/ml of recombinant human Interleukin-12 (SinoBiologicals, Cat #CT011-H08H). After counting, cells were seeded at 100 000 cells/well in a 384 well culture plate and incubated at 37° C./5% CO2. When indicated, cells were preincubated with anti-PD-1 antibody LZM-009 at 17 uM during 30 min at 37° C. […] The lowest concentration assessed was 0.8 fM.
After 16-20 h incubation at 37° C./5% CO2, 5 μl of supernatant were carefully transferred to a 384 microwell OptiPlate (Perkin Elmer; Cat #6007270) and Interferon-gamma (IFNγ) levels were measured using the Human IFNγ AlphaLISA Assay Kit (Perkin Elmer, Cat #AL217C). […] AlphaLISA signal was then measured on an Enspire plate reader (Perkin Elmer) using 680 and 615 nm as excitation and emission wavelengths respectively. Half maximal effective concentration (EC50) was calculated based on a variable slope, four parameter analysis using GraphPad PRISM software.

For “SEQ ID NO: 1: Native sequence of human IL-18 (bioactive form) [reference compound]”, the pIC50 in the test with NK92 cells is 9.11. Also, the pEC50 in test [1] (IFNγ secretion) is 9.89. Further, the “PD-1^neg/PD-1^pos EC50 ratio” value in test [1] (NK-92 cells) is recorded as 1.4.
